“And” between values parts separate entries of the source, which are not always exact repeats. Equal values may be shown once. Toxic doses and inconclusive results are not listed. No stated cut-off is given here; in the data, active means T/C of 150% or more; inactive means T/C below 125%.
Tested on: L1210 leukemia ip in BDF1 mice, survival T/C
Experiment: NCI In Vivo Anticancer Drug Screen. Data for tumor model L1210 Leukemia (intraperitoneal) in B6D2F1 (BDF1) mice
Conditions: endpoint: mean survival time, higher = longer survival
Outline: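 Transplanted-tumor mice were given test agent; controls received vehicle only. Survival readings from the two groups were divided (treated over control).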

[1] = dose: 50.0 mg/kg/injection, schedule: Q01DX001 (ip), vehicle: saline
[2] = dose: 100.0 mg/kg/injection, schedule: Q01DX001 (ip), vehicle: saline
[3] = dose: 200.0 mg/kg/injection, schedule: Q01DX001 (ip), vehicle: saline
[4] = dose: 25.0 mg/kg/injection, schedule: Q04DX003 (ip), vehicle: saline with Tween-80
[5] = dose: 100.0 mg/kg/injection, schedule: Q01DX009 (ip), vehicle: Klucel (hydroxypropylcellulose) (HPC)
[6] = dose: 200.0 mg/kg/injection, schedule: Q01DX009 (ip), vehicle: Klucel (hydroxypropylcellulose) (HPC)
[7] = dose: 400.0 mg/kg/injection, schedule: Q01DX009 (ip), vehicle: Klucel (hydroxypropylcellulose) (HPC)
[8] = dose: 100.0 mg/kg/injection, schedule: Q04DX003 (ip), vehicle: Klucel (hydroxypropylcellulose) (HPC)
[9] = dose: 200.0 mg/kg/injection, schedule: Q04DX003 (ip), vehicle: Klucel (hydroxypropylcellulose) (HPC)
[10] = dose: 400.0 mg/kg/injection, schedule: Q04DX003 (ip), vehicle: Klucel (hydroxypropylcellulose) (HPC)
[11] = dose: 100.0 mg/kg/injection, schedule: Q01DX009 (ip), vehicle: saline
[12] = dose: 200.0 mg/kg/injection, schedule: Q01DX009 (ip), vehicle: saline
[13] = dose: 400.0 mg/kg/injection, schedule: Q01DX009 (ip), vehicle: saline

Measured: T/C

CC(C)(CC(N)=O)C(=O)O
inactive: [1] 102 % of control | [2] 115 % of control | [3] 113 % of control | dose: 400.0 mg/kg/injection, schedule: Q01DX001 (ip), vehicle: saline 110 % of control

NC(N)=NCCCCCCN=C(N)N
inactive: dose: 6.25 mg/kg/injection, schedule: Q01DX Z (oral), vehicle: saline 106 % of control | dose: 6.25 mg/kg/injection, schedule: Q04DX003 (ip), vehicle: saline with Tween-80 100 % of control | dose: 12.5 mg/kg/injection, schedule: Q01DX Z (oral), vehicle: saline 103 % of control | dose: 12.5 mg/kg/injection, schedule: Q04DX003 (ip), vehicle: saline with Tween-80 100 % of control | dose: 25.0 mg/kg/injection, schedule: Q01DX Z (oral), vehicle: saline 103 % of control | [4] 99 % of control and 101 % of control

Nc1nc2c(nnn2C2OC(COP(=O)(O)O)C(O)C2O)c(=O)[nH]1 (stereo not given)
inactive: dose: 2.5 mg/kg/injection, schedule: Q01DX Z (ip), vehicle: other 89 % of control | dose: 5.0 mg/kg/injection, schedule: Q01DX Z (ip), vehicle: other 97 % of control | dose: 10.0 mg/kg/injection, schedule: Q01DX Z (ip), vehicle: other 102 % of control | dose: 20.0 mg/kg/injection, schedule: Q01DX Z (ip), vehicle: other 118 % of control | dose: 30.0 mg/kg/injection, schedule: Q01DX Z (ip), vehicle: other 120 % of control | dose: 50.0 mg/kg/injection, schedule: Q01DX Z (ip), vehicle: other 118 % of control

CCCC(C)CCCNCCOC(=O)c1cccc(N)c1 (stereo not given)
inactive: dose: 75.0 mg/kg/injection, schedule: Q01DX001 (ip), vehicle: other 97 % of control | dose: 150.0 mg/kg/injection, schedule: Q01DX001 (ip), vehicle: other 94 % of control

CC(=O)OC1CCC2(C)C3=CCC4(C)C(C(C)/C=C\C(C)C(C)C)CCC4C34C=CC2(C1)C1C(=O)OC(=O)C14 (stereo not given)
inactive: dose: 25.0 mg/kg/injection, schedule: Q04DX002 (ip), vehicle: saline with Tween-80 98 % of control | dose: 50.0 mg/kg/injection, schedule: Q04DX002 (ip), vehicle: saline with Tween-80 90 % of control | dose: 100.0 mg/kg/injection, schedule: Q04DX002 (ip), vehicle: saline with Tween-80 94 % of control

CNc1nc(Cl)ncc1C
inactive: dose: 0.2 mg/kg/injection, schedule: Q01DX Z (ip), vehicle: methylcellulose (MC) 90 % of control | dose: 0.5 mg/kg/injection, schedule: Q01DX Z (ip), vehicle: methylcellulose (MC) 89 % of control

COC(=O)c1ccccc1C(=O)Nc1cc(C(F)(F)F)ccc1Cl
inactive: [5] 100 % of control | [6] 103 % of control | [7] 100 % of control

CC(C)C(NC(=O)c1ccccc1)C(=O)O (stereo not given)
inactive: [5] 92 % of control | [8] 96 % of control | [6] 98 % of control | [9] 113 % of control | [7] 96 % of control | [10] 100 % of control

COC(CO)C(O)C(O)C=O (stereo not given)
inactive: [11] 93 % of control | [12] 97 % of control | [13] 102 % of control

Cc1ccc(S(=O)(=O)OCC(F)(F)C(F)(F)C(F)(F)C(F)(F)C(F)(F)C(F)(F)C(F)(F)F)cc1
inactive: [11] 94 % of control | [12] 88 % of control | [13] 93 % of control

CC(=O)NCCCCCC(=O)O
inactive: dose: 25.0 mg/kg/injection, schedule: Q01DX009 (ip), vehicle: saline 97 % of control | dose: 50.0 mg/kg/injection, schedule: Q01DX009 (ip), vehicle: saline 105 % of control | dose: 50.0 mg/kg/injection, schedule: Q04DX003 (ip), vehicle: saline 102 % of control | [5] 98 % of control and 90 % of control | [11] 108 % of control | [8] 101 % of control and 88 % of control | dose: 100.0 mg/kg/injection, schedule: Q04DX003 (ip), vehicle: saline 103 % of control | [6] 97 % of control and 101 % of control | [12] 100 % of control | [9] 101 % of control and 90 % of control | dose: 200.0 mg/kg/injection, schedule: Q04DX003 (ip), vehicle: saline 104 % of control | [7] 101 % of control | [13] 100 % of control | [10] 95 % of control and 101 % of control | dose: 400.0 mg/kg/injection, schedule: Q04DX003 (ip), vehicle: saline 96 % of control | dose: 800.0 mg/kg/injection, schedule: Q04DX003 (ip), vehicle: saline 95 % of control

Clc1nc2nc[nH]c2nc1Cl
inactive: [4] 98 % of control | dose: 50.0 mg/kg/injection, schedule: Q04DX003 (ip), vehicle: saline with Tween-80 104 % of control | [8] 92 % of control | dose: 100.0 mg/kg/injection, schedule: Q04DX003 (ip), vehicle: saline with Tween-80 86 % of control

ICC1COCC(CI)O1 (stereo not given)
inactive: dose: 100.0 mg/kg/injection, schedule: Q01DX009 (ip), vehicle: saline with Tween-80 101 % of control | dose: 200.0 mg/kg/injection, schedule: Q01DX009 (ip), vehicle: saline with Tween-80 113 % of control | dose: 400.0 mg/kg/injection, schedule: Q01DX009 (ip), vehicle: saline with Tween-80 106 % of control

CCN(C(=O)c1ccc(C(=O)N(CC)c2cccc(C)c2)cc1)c1cccc(C)c1
inactive: [5] 94 % of control | [6] 89 % of control | [7] 91 % of control

NC(N)=N/N=C/c1ccc(O)c(C(=O)O)c1
inactive: dose: 15.0 mg/kg/injection, schedule: Q01DX Z (ip), vehicle: methylcellulose (MC) 92 % of control | dose: 30.0 mg/kg/injection, schedule: Q01DX Z (ip), vehicle: methylcellulose (MC) 94 % of control | dose: 60.0 mg/kg/injection, schedule: Q01DX Z (ip), vehicle: methylcellulose (MC) 106 % of control | dose: 60.0 mg/kg/injection, schedule: Q01DX Z (oral), vehicle: methylcellulose (MC) 108 % of control | dose: 120.0 mg/kg/injection, schedule: Q01DX Z (ip), vehicle: methylcellulose (MC) 88 % of control | dose: 120.0 mg/kg/injection, schedule: Q01DX Z (oral), vehicle: methylcellulose (MC) 113 % of control | dose: 250.0 mg/kg/injection, schedule: Q01DX Z (oral), vehicle: methylcellulose (MC) 89 % of control

c1ccc2sc(SN3CCCCC3)nc2c1
inactive: dose: 100.0 mg/kg/injection, schedule: Q01DX001 (ip), vehicle: Klucel (hydroxypropylcellulose) (HPC) 103 % of control | dose: 200.0 mg/kg/injection, schedule: Q01DX001 (ip), vehicle: Klucel (hydroxypropylcellulose) (HPC) 97 % of control | dose: 400.0 mg/kg/injection, schedule: Q01DX001 (ip), vehicle: Klucel (hydroxypropylcellulose) (HPC) 94 % of control

C=C1C(=O)OC2C1C1CC1(C)C1CC(OC(C)=O)C(C)C21O (stereo not given)
inactive: dose: 50.0 mg/kg/injection, schedule: Q01DX001 (ip), vehicle: water 103 % of control | dose: 100.0 mg/kg/injection, schedule: Q01DX001 (ip), vehicle: water 92 % of control | dose: 200.0 mg/kg/injection, schedule: Q01DX001 (ip), vehicle: water 103 % of control

O=C(c1ccccc1)C1C(c2ccccc2)N1C(=O)c1ccccc1 (stereo not given)
inactive: [5] 94 % of control | [8] 102 % of control | [6] 101 % of control | [9] 90 % of control | [7] 89 % of control | [10] 90 % of control

COc1ccc(-n2c(=O)c(N=Nc3ccc(Br)cc3)c(O)n(-c3ccc(Cl)cc3)c2=S)cc1
inactive: dose: 37.5 mg/kg/injection, schedule: Q01DX001 (ip), vehicle: Klucel (hydroxypropylcellulose) (HPC) 102 % of control | dose: 75.0 mg/kg/injection, schedule: Q01DX001 (ip), vehicle: Klucel (hydroxypropylcellulose) (HPC) 101 % of control | dose: 150.0 mg/kg/injection, schedule: Q01DX001 (ip), vehicle: Klucel (hydroxypropylcellulose) (HPC) 104 % of control

O=C1NC(=S)SC1N=Nc1ccc(S(=O)(=O)Nc2ncccn2)cc1 (stereo not given)
inactive: dose: 75.0 mg/kg/injection, schedule: Q01DX001 (ip), vehicle: saline 104 % of control | dose: 150.0 mg/kg/injection, schedule: Q01DX001 (ip), vehicle: saline 102 % of control | dose: 300.0 mg/kg/injection, schedule: Q01DX001 (ip), vehicle: saline 100 % of control

CC1C(C)C23CCC12C(=O)C(O)C12CCC1(C(O)C3=O)C(C)C2C (stereo not given)
inactive: [1] 100 % of control | [2] 109 % of control | [3] 111 % of control

CC(C)(C)C1=NN=C(C(C)(C)C)CS(=O)C1
inactive: dose: 100.0 mg/kg/injection, schedule: Q04DX002 (ip), vehicle: Klucel (hydroxypropylcellulose) (HPC) 90 % of control | dose: 200.0 mg/kg/injection, schedule: Q04DX002 (ip), vehicle: Klucel (hydroxypropylcellulose) (HPC) 97 % of control | dose: 400.0 mg/kg/injection, schedule: Q04DX002 (ip), vehicle: Klucel (hydroxypropylcellulose) (HPC) 101 % of control
